{"source": "paper PMC9061853", "about": "“Luminescent bis(benzo[d]thiazolyl)quinoxaline: facile synthesis, nucleic acid and protein BSA interaction, live-cell imaging, biopharmaceutical research and cancer theranostic application” (RSC Advances, 2019)", "key": {"[1]": {"assay": "Biopharmaceutical classification (BCS / BDDCS)", "conditions": "primarily classified"}, "[2]": {"assay": "Caco-2 permeability study", "format": "in vitro ADME", "conditions": "human, Caco-2, 10 μM, N = 3", "protocol": "(§1) Compound 7g permeation ability (i.e. permeability) was assessed through Caco-2 cell monolayer. Permeability study was planned in both directions from apical to basolateral (A to B) and basolateral to apical (B to A) side. A to B is for checking drug permeation characteristics from the intestine (site of absorption) to systemic circulation and B to A is for checking drug efflux back to the intestine."}, "Caco-2 cell monolayer": {"tested_on": "Caco-2 cell monolayer", "assay": "Caco-2 permeability study", "format": "in vitro ADME", "conditions": "10 μM, A to B and B to A; samples below the lower limit of quantitation", "protocol": "as §1"}, "CT-DNA": {"tested_on": "CT-DNA", "assay": "UV-visible absorption titration with CT-DNA", "format": "binding", "protocol": "DNA is one of the key target for cancer therapy. The drug molecules bind with the DNA by three major modes (i) electrostatic interactions with the DNA double helix (ii) binding to grooves of DNA (iii) intercalation between the base pairs of DNA.[25] The titration in UV was performed by increasing concentration of DNA from 10–60 μM into a fixed drug concentration (20 μM). The intra-ligand absorption bands around 290–350 nm (π–π* transition) were used in observation of the interaction of DNA and compound 7e (Fig. S3a ^†). […] Ethidium bromide, a nonspecific intercalator, gives a strong fluorescence while intercalating DNA base pairs. This enhanced fluorescence can be quenched by another chemical moiety which can competitively replace EtBr and binds to the same site.[27] […] The original fluorescence intensity of EtBr–DNA complex is rapidly quenched by increasing the concentration of compound 7e (Fig. S3c ^†). […]\nThen the 96 well plate was placed on the shaker for 10 min and subsequently the absorbance was recorded by the ELISA reader at λ = 490 nm. […] The data were expressed as the growth inhibition percentage calculated according to the equation: % growth inhibition = 100 − [(AD × 100)/AB], where AD is the absorbance measured for sample and AB is the absorbance measured for blank wells (cells with a […]\nwith DNA. The absorbance of the complex was measured after each succeeding addition of […]"}}}
{"compound": "COc1ccc2nc(COc3ccccc3-c3nc4ccccc4s3)c(COc3ccccc3-c3nc4ccccc4s3)nc2c1", "note": "[Compound 7g, 2,2'-((((6-methoxyquinoxaline-2,3-diyl)bis(methylene))bis(oxy))bis(2,1-phenylene))bis(benzo[d]thiazole)]", "values": [{"measurement": "BCS class", "setting": "[1]", "result": "BCS class 4"}, {"measurement": "BDDCS class", "setting": "[1]", "result": "BDDCS class 4"}, {"measurement": "recovery at 10 μM", "setting": "[2]; A to B", "result": 101, "unit": "%"}, {"measurement": "recovery at 10 μM", "setting": "[2]; B to A", "result": 96, "unit": "%"}, {"measurement": "permeability across Caco-2 cell monolayer", "setting": "Caco-2 cell monolayer", "result": "low permeability"}]}
{"compound": "Clc1cc2nc(COc3ccccc3-c3nc4ccccc4s3)c(COc3ccccc3-c3nc4ccccc4s3)nc2cc1Cl", "note": "[Compound 7e]", "values": [{"measurement": "K b, intrinsic DNA binding constant", "setting": "CT-DNA; UV-visible absorption titration, 7e 20 μM, DNA 10–60 μM", "result": 6900, "unit": "M⁻¹"}, {"measurement": "% Hypochromism", "setting": "CT-DNA; UV-visible titration with CT-DNA", "result": 50, "unit": "%"}]}
